We go through three compounds from patent US8993608B2, “Method for inhibiting topoisomerase II” (Synta Pharmaceuticals Corp., priority 2007, dated 2015).

For assay [1], the system named is Her2. Nature of the assay: Degradation of Her2 in BT-474 cells after treatment (Method 1, SDS-PAGE/immunoblot). It counts as cell-based, Human. The following applies: overnight. As to the method: Human high-Her2 breast carcinoma BT474 (HTB-20), SK-BR-3 (HTB-30) and MCF-7 breast carcinoma (HTB-22) from American Type Culture Collection, Va., USA were grown in Dulbecco's modified Eagle's medium with 4 mM L-glutamine and antibiotics (100 IU/ml penicillin and 100 ug/ml streptomycine;GibcoBRL). To obtain exponential cell growth, cells were trypsinized, counted and seeded at a cell density of 0.5×10^6 cells /ml regularly, every 3 days. All experiments were performed on day 1 after cell passage.
BT-474 cells were treated with 0.5 μM, 2 μM, or 5 μM of 17AAG (a positive control) or 0.5 μM, 2 μM, or 5 μM of Compound 108 or Compound 49 overnight in DMEM medium. After treatment, each cytoplasmic sample was prepared from 1×10^6 cells by incubation of cell lysis buffer (#9803, cell Signaling Technology) on ice for 10 minutes. The resulting supernatant used as the cytosol fractions were dissolved with sample buffer for SDS-PAGE and run on a SDS-PAGE gel, blotted onto a nitrocellulose membrane by using semi-dry transfer. Non-specific binding to nitrocellulose was blocked with 5% skim milk in TBS with 0.5% Tween at roomtemperature for 1 hour, then probed with anti-Her2/ErB2 mAb (rabbit IgG, #2242, Cell Signaling) and anti-Tubulin (T9026, Sigma) as housekeeping control protein. HRP-conjugated goat anti-rabbit IgG (H+L) and HRP-conjugated horse anti-mouse IgG (H+L) were used as secondary Ab (#7074, #7076, Cell Signaling) and LumiGLO reagent, 20× Peroxide (#7003, Cell Signaling) was used for visualization.

Assay [2] relates to Hsp90 protein. Nature of the assay: Malachite Green Assay of ATPase activity of Hsp90 protein. It counts as biochemical. As to the method:
Hsp90 protein was obtained from Stressgen (Cat#SPP-770). Assay buffer: 100 mM Tris-HCl, Ph7.4, 20 mM KCl, 6 mM MgCl2. […] Malachite green reagent was added to the reaction. […] The plate was read by an ELISA reader with an absorbance at 620 nm.

Assay [3] concerns the target T1, topoisomerase II (Homo sapiens, UniProt P11388).
T1 construct: purchased TopoGEN, Inc
Nature of the assay: kDNA decatenation assay for inhibition of topoisomerase II. It counts as biochemical. The following applies: 200 nM, lane 8 of FIG. 3. As to the method: The ability of compounds of the invention to inhibit the activity of topoisomerase II was examined with a kDNA decatenation assay (TopoGEN, Inc. Port Orange, Fla.). Substrate kDNA was mixed with compounds and incubated at 37° C. for 30 min. The reaction was stop by adding ⅕ volume of stop buffer. 20 μl of the reaction was loaded on 1% agarose gel. Image of decatenation of kDNA by compounds was taken by Kodak Image Station 440.
In the presence of topoisomerase II, decatenated nicked and circular kDNAs are located at the bottom of the gel. […] Table 9 indicates the ability of compounds of the invention to inhibit the activity of topoisomease II.

The target of assay [4] is human topo II (Homo sapiens, UniProt P11388). The following applies: Gadelle et al., Biochemical Pharmacology (2006); cited from earlier work.

Molecules are shown by their SMILES.

T1 sequence (P11388 whole entry): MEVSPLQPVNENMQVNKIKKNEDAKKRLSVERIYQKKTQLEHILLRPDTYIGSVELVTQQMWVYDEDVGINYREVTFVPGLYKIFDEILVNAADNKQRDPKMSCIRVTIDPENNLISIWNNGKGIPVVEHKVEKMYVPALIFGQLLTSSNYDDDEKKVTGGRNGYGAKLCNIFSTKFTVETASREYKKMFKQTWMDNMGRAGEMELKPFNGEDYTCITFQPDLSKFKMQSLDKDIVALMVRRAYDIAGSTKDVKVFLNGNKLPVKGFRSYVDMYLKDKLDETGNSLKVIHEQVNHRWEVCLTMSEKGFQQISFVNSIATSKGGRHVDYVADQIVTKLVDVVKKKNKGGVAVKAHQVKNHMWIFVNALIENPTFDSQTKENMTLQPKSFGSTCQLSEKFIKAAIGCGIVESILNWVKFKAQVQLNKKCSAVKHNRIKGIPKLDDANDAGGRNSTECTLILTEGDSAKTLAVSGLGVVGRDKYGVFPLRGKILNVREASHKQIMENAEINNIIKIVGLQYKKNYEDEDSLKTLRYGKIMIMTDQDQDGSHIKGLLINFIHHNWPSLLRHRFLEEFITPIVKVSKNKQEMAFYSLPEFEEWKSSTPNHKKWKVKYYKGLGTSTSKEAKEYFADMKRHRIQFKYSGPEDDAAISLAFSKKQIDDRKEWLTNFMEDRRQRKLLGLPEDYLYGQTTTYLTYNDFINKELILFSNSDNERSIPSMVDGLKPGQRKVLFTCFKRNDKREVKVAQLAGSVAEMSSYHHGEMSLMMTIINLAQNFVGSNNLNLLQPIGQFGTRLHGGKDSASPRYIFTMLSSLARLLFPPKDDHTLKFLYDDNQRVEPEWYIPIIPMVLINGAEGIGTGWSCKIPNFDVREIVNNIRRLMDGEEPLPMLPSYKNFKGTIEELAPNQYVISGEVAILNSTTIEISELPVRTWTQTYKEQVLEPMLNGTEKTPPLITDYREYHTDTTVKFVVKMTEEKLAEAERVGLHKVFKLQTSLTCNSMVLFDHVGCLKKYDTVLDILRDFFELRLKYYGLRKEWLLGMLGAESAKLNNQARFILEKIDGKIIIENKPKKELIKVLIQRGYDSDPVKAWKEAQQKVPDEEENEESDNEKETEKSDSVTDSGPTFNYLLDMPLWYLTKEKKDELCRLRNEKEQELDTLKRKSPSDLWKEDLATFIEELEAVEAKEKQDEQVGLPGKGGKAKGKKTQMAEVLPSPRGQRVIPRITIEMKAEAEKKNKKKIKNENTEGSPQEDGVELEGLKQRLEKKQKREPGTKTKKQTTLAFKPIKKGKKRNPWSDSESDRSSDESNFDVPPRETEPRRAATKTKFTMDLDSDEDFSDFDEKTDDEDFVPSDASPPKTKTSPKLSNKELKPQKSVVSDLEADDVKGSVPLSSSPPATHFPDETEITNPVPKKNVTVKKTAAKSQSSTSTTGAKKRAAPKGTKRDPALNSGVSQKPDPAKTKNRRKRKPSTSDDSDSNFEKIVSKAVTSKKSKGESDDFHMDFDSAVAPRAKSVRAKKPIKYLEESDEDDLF
human topo II, sequence (P11388 whole entry): as above

In the case of `CCc1cc(-c2nnc(S)n2-c2cccc3ccccc23)c(O)cc1O` [Compound 49, 3-(2,4-Dihydroxy-5-ethyl-phenyl)-4-(naphthalen-1-yl)-5-mercapto-triazole], the “degradation of Her2” value was “partial degradated” in assay [1] (0.5 μM), “complete degradation” in assay [1] (2 μM) and “complete degradation” in assay [1] (5 μM).

In the case of `Oc1ccc(-c2nnc(S)n2-c2cccc3ccccc23)c(O)c1` [Compound 108, 3-(2,4-Dihydroxy-phenyl)-4-(naphthalen-1-yl)-5-mercapto-triazole], the “inhibition of ATPase activity of Hsp90” value is on record as “significant inhibition” in assay [2] (4 μM) and “even greater inhibition of ATPase activity of Hsp90 than geldanamycin” in assay [2] (40 μM). Moreover, the “degradation of Her2” value in assay [1] (0.5 μM) is on record as “partially degradated”; in assay [1] (2 μM), “partially degradated”; in assay [1] (5 μM) it was “almost completely degraded”.

Regarding `C[C@@H]1C[C@H]2O[C@@H]2/C=C\C=C\C(=O)Cc2c(Cl)c(O)cc(O)c2C(=O)O1` [radicicol], the “inhibition of the activity of topoisomerase II” value in assay [3] is listed as “completely inhibits the activity of topoisomerase II”. Also, the “inhibition of the activity of human topo II” value in assay [4] is “can inhibit the activity of human topo II”.
